Laboratory results published in patent publication US8754047B2, “Peptide compositions and methods of use” (The Research Foundation for the State University of New York, priority 2008, dated 2014).
Positions of bridges follow the written chain, without caps; N, C: chain ends. Residues, ends and D or L forms follow the SMILES beside them.

What was measured:
thioredoxin reductase [1] = target: T1, thioredoxin reductase (Rattus norvegicus, UniProt O89049); assay: biochemical
T1 sequence (O89049 1-499): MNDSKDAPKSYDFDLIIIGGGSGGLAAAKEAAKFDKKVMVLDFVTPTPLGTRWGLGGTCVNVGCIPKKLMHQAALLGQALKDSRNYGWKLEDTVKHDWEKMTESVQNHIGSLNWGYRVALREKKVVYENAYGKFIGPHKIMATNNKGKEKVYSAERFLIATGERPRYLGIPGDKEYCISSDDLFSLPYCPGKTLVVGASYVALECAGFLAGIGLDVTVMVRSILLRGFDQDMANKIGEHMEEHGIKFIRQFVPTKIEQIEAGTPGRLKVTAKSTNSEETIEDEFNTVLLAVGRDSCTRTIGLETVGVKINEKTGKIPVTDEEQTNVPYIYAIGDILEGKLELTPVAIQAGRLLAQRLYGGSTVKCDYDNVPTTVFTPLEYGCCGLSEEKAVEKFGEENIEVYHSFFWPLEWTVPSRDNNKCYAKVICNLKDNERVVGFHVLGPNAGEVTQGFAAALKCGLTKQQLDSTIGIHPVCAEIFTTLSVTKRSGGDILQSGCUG
Experimental: (§5) The activity was determined based on the change in absorbance (ΔA412) per minute (ΔA412/min).

[2] = system: SW480 human colon cancer xenografts; assay: SW480 human colon cancer xenografts in nude mice, tumor volume; assay type: in vivo; details: 500 μg/day intraperitoneally for 19 days
Experimental: (§1) Xenografts were generated as described in FIG. 3A-B and Example 3 except where noted. Each animal had two xenografts, one on its right flank and one on the left. In these studies, the effect of two doses of YJB01, 100 μg and 500 μg per animal were evaluated. The doses were administrated intraperitoneally once a day dissolved in phosphate buffered saline (PBS). Control animals were injected with PBS. Tumor volume was determined as described in Example 3. Tumor volume is expressed as mean±SEM.
as §1, with “the” for “FIG. 3A-B and”
Xenografts were generated as described in the Example 3 except that 8 Balb/c nude mice in each group were used in this experiment. Nude mice bearing SW480 xenografts were treated with 500 μg/day of YJB02 for 19 days. The doses were administrated intraperitoneally once a day dissolved in phosphate buffered saline (PBS). Control animals were treated with PBS.
Tumor volume was determined as described in Example 3. Tumor volume was monitored and graphed as set forth in FIG. 9A, and is expressed as mean±SEM.

SW480 tumor cells [3] = assay: Ki-67 staining of xenograft tumor tissue for cell proliferation; assay type: in vivo, nude mice; details: tumors of mice treated 500 μg/day for 19 days
Experimental: (§2) Tumor tissue from the mice treated with PBS or YJB02 as described in Example 8 were utilized in this experiment. Cell death was determined by terminal deoxynucleotidyl transferase dUTP nick end labeling (TUNEL) staining sections of paraffin embedded tissues, as previously described (Ouyang, N., Williams, J. L., Tsioulias, G. J., Gao, J., Iatropoulos, M. J., Kopelovich, L., Kashfi, K., and Rigas, B. 2006. Nitric oxide-donating aspirin prevents pancreatic cancer in a hamster tumor model. Cancer Res 66:4503-4511). Cell proliferation was determined by staining sections of paraffin embedded tissues for Ki-67 (Santa Cruz Biotechnology, Calif.) as previously described (Id.)
Tissue slides from control or YJB02 treated tumors were stained with anti-Ki67 antibody (Santa Cruz Biotechnology, Santa Cruz, Calif., US). As shown in the lower panel of FIG. 10, YJB02 inhibited tumor cell proliferation. […] Slides were counter-stained with hematoxylin.

in vitro = details: human, NCM460 normal colon epithelial cells
Experimental: After treatment with various concentrations (6.25 μM, 12.5 μM, 25 μM, 50 μM, 100 μM, or 200 μM) of test peptide for 24 h, cells were stained with MTT (3-(4,5-Dimethyl-2-thiazolyl)-2,5-diphenyl-2H-tetrazolium bromide, from Sigma-Aldrich) following the instructions of the manufacturer. […] Cells that are alive convert MTT into formazan in their active mitochondria and appear dark purple; dead cells are not stained by MTT and appear colorless.

thioredoxin reductase [4] = target: T1, thioredoxin reductase
Experimental: as §5

SW480 tumor cells [5] = assay: TUNEL staining of xenograft tumor tissue for apoptosis; assay type: in vivo, nude mice; details: tumors of mice treated 500 μg/day for 19 days
Experimental: as §2
Slides were stained with TUNEL kit for apoptosis (available from Roche Applied Science, Indianapolis, Ind., US).

[6] = system: SW480 human colon cancer cells; assay: In vitro cell viability assay by MTT / cell Titer-Glo, SW480
Experimental: (§3) 10,000 HT29 or SW480 human colon cancer cells, BxPC-3 human pancreatic cancer cells, and MCF7 and MDA-MB-231 breast cancer cells were obtained from American Type Culture Collection (ATTC), Manassas, Va., and were seeded in separate 96-well plates. After treatment with various concentrations (6.25 μM, 12.5 μM, 25 μM, 50 μM, 100 μM, or 200 μM) of test peptide for 24 h, cells were stained with MTT (3-(4,5-Dimethyl-2-thiazolyl)-2,5-diphenyl-2H-tetrazolium bromide, from Sigma-Aldrich) following the instructions of the manufacturer. Before dissolving MTT in SDS, the HT29 and SW480 cells were photographed using a digital camera connected with a phase-contrast microscope. (FIG. 2A1-8, and FIG. 2B1-6). Cells that are alive convert MTT into formazan in their active mitochondria and appear dark purple; dead cells are not stained by MTT and appear colorless.
(§4) The IC50 is the concentration of the test agent that inhibits cell growth by 50% at 24 hours of exposure. IC50s were determined using the MTT assay or using the cell Titer-Glo method and following the instructions of the manufacturer ([…]). […] (Sun, Y., and Rigas, B., (2008), Cancer Res., 68(20): 8269-8277).
The effect of peptide YJB02 on SW480 colon cancer cells was compared to the effect of peptide YJB02 on the normal human colon epithelial cell line NCM460. […] The viability was determined as described in Example 2.

MCF7 breast cancer cells = details: read-out: IC50s, MCF7; inhibits cell growth by 50% at 24 hours of exposure; MTT or cell Titer-Glo
Experimental: as §3, §4

[7] = system: BxPC-3 human pancreatic cancer cells; details: read-out: IC50s, BxPC3; inhibits cell growth by 50% at 24 hours of exposure; MTT or cell Titer-Glo
Experimental: as §3, §4

[8] = system: MDA-MB-231 breast cancer cells; details: read-out: IC50s, MDA-MB-231; inhibits cell growth by 50% at 24 hours of exposure; MTT or cell Titer-Glo
Experimental: as §3, §4

With `CC[C@H](C)[C@H](NC(=O)[C@H](CCCCN)NC(=O)[C@@H](NC(=O)[C@H](CCC(N)=O)NC(=O)[C@H](CCCNC(=N)N)NC(=O)[C@@H]1CCCN1C(=O)[C@@H](NC(=O)[C@@H]1CSSC[C@H](NC(=O)[C@@H](NC(=O)CN)[C@@H](C)O)C(=O)N[C@@H](C(C)C)C(=O)N[C@@H](CC(N)=O)C(=O)N[C@@H](C(C)C)C(=O)NCC(=O)N1)[C@@H](C)CC)[C@@H](C)CC)C(=O)N[C@@H](Cc1c[nH]c2ccccc12)C(=O)N[C@@H](Cc1ccccc1)C(=O)N[C@@H](CCC(N)=O)C(=O)N[C@@H](CC(N)=O)C(=O)N[C@@H](CCCNC(=N)N)C(=O)N[C@@H](CCCNC(=N)N)C(=O)N[C@@H](CCSC)C(=O)N[C@@H](CCCCN)C(=O)N[C@@H](Cc1c[nH]c2ccccc12)C(=O)N[C@@H](CCCCN)C(=O)N[C@@H](CCCCN)C(=O)O` [YJB02] (H-GTCVNVGCIPRQIKIWFQNRRMKWKK-OH; disulfide 3-8; N-terminus and C-terminus assumed) the IC50 (thioredoxin reductase [1]) was 0.036 µM, the tumor volume ([2]; day 19, control 635 mm^3) was 207 mm^3 and the “reduction in SW480 tumor growth” value ([2]; vs control) was 67%. For the same compound, the “Ki67 (+) signals in tumor tissue” value (SW480 tumor cells [3]) was “dramatically decreased”, the viability at 24 h, 200 μmol/L (in vitro) was 75% and the “thioredoxin reductase activity, ΔA412/min” value (thioredoxin reductase [4]) was “decreased by YJB02 in a dose dependent manner”. The “TUNEL (+) cells in tumor tissue” value (SW480 tumor cells [5]) was “induced more TUNEL (+) cells than control tumors”, the “SW480 cells remained viable” value ([6]; 200 μmol/L, 24-hour treatment) was 20% and the IC50 ([6]; read-out: IC50s, SW480, inhibits cell growth by 50% at 24 hours of exposure, MTT or cell Titer-Glo) was less than 12.5 µM. For the same compound, the IC50 (MCF7 breast cancer cells) was 213 µM, the IC50 [7] was 36 to 76 µM and the IC50 [8] was 243 µM.
